Test: gradient 5% acetonitrile 3 min, to 50% in 2 min, to 85% in 15 min, held 3 min, 100 µL/min
Details: column: Zorbax Extend-C18 2.1 x 50 mm; eluents: water / acetonitrile, 0.1% formic acid
In short: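 Pure standards were run in mixtures of ~100 molecules by HPLC coupled to a quadrupole time-of-flight mass spectrometer. The column was a Zorbax Extend-C18 (2.1 × 50 mm, 1.8 μm) at 100 μL/min, with water and acetonitrile each containing 0.1% formic acid, in positive and negative ionization mode. Dead and dwell volumes were 40 μL and 900 μL. Retention time was taken from computationally picked adduct peaks, each manually inspected, with data collected over 3 months.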

| SMILES | RP-LC retention time [s] |
| --- | --- |
| O=C(c1cccs1)N1CCN(S(=O)(=O)c2cc(-c3noc(C4CCC4)n3)cs2)CC1 | 998 |
| O=C(NC1CCCCC1)N1CCC(N2C(=O)C3(CCCCC3)C2c2ccncc2)CC1 (stereo not given) | 659 |
| CCn1c(=O)n(Cc2cccc(Cl)c2)c(=O)c2cnc(-c3ccc(OC)cc3)nc21 | 1340 |
| CCCOc1ccc(C(=O)Nc2nnc(C3CC(=O)N(c4ccc(Cl)cc4)C3)o2)cc1 (stereo not given) | 909 |
| CCOc1ccc(NC(=O)Nc2nccn(-c3cccc(Cl)c3)c2=O)cc1 | 1000 |
| CN1C(=O)NC2(CCN(C(=O)C3c4ccccc4Oc4ccccc43)CC2)C1=O | 705 |
| Cc1cc(C(=O)Nc2nc(-c3nc4ccccc4s3)cs2)c(C)o1 | 1040 |
| CCN(CC)S(=O)(=O)c1ccc2c(c1)cc(C(=O)NCCc1c[nH]c3ccccc13)n2C | 1010 |
| c1cc(N2CCSCC2)ncc1-c1noc(CN2CCN(C3CCCCC3)CC2)n1 | 655 |
| COC(=O)c1cc(OC)c(OC)cc1NC(=O)C1Oc2ccccc2OC1C (stereo not given) | 1040 |
| CCn1c(=O)c(C)nc2cc(-c3noc(-c4ccc(OC)cc4)n3)ccc21 | 942 |
| COc1cccc(NC(=O)N2CCCC2c2nc(-c3cccc(OC)c3)no2)c1 (stereo not given) | 947 |
| Cc1nn(CC(=O)NCC2CCCO2)c(=O)c2nc(-c3ccccc3)sc12 (stereo not given) | 709 |
| Cc1ccccc1Nc1cc(C)n2c(=O)n(Cc3cccnc3)nc2n1 | 750 |
| COCCN1C(=O)[C@H]2CN(Cc3cc(OC)ccc3OC)C[C@H]2C1=O | 595 |
| CN1CCN(CCCNC(=O)CN2C(=O)CCn3nc(-c4cn(C)c5ccccc45)cc32)CC1 | 587 |
| CCOC(=O)C1CCN(C(=O)Cn2c(N3CCOCC3)nc(C)cc2=O)CC1 | 620 |
| Cc1oc(-c2ccc(NC(=O)C3CCC3)cc2)nc1Cn1cccn1 | 799 |
| O=c1ccc(-c2ccc3c(c2)OCO3)nn1Cc1nc(-c2ccc(C(F)(F)F)cc2)no1 | 1070 |
| Cc1ccc(S(=O)(=O)N2CC(=O)N(c3ccccc3F)C(C)(C(=O)NCCC(C)C)C2)cc1 (stereo not given) | 1020 |
| O=C(Oc1cccc([N+](=O)[O-])c1)N1CCCCC1 | 896 |
| Cc1nc(CNC(=O)C2CCN(C(=O)Nc3cccc(Br)c3)CC2)cs1 | 707 |
| Cc1ccc(NC(=O)Nc2nccn(-c3ccc(Br)cc3)c2=O)cc1C | 1100 |

| SMILES | RP-LC retention time [s] |
| --- | --- |
| CC(=O)N1CCCC1c1nc(C2CN(S(=O)(=O)c3cccs3)C2)no1 (stereo not given) | 703 |
| COc1ccc(NS(=O)(=O)c2cc3n(c2)CCN(CC(C)C)C3=O)cc1 | 745 |
| COC(=O)c1ccc2c(=O)n(Cc3cccc(OC)c3)c(N3CCN(c4ccccn4)CC3)nc2c1 | 741 |
| Clc1ccc(-c2nc3ccc(Cl)cn3c2Nc2ccc3c(c2)OCCO3)cc1 | 915 |
| CNCC[C@@H](Oc1ccccc1C)c1ccccc1 | 728 |
| CN1CCOc2ccc(NC(=O)c3cc(-c4ccc(F)cc4)n[nH]3)cc2C1=O | 686 |
| Cc1cc(-c2nnc(NC(=O)c3cc(Cl)sc3Cl)o2)n(C)n1 | 772 |
| CC1(C)CC(=O)c2cn(-c3ccc(F)cc3)c(=O)c(C(=O)Nc3cccnc3)c2C1 | 707 |
| Cc1cc(N(C)C)nc(NCCNC(=O)C2CCCC2)n1 | 545 |
| Cc1cccn2c(=O)nc(SCC(=O)NCc3ccco3)nc12 | 610 |
| CN1CCN(c2nc3ccc(NC(=O)C4CC(=O)N(c5ccccc5)C4)cc3s2)CC1 (stereo not given) | 561 |
| COc1ccc(-c2nc(NCCN3CCCCC3C)c3ccccc3n2)cc1 (stereo not given) | 598 |
| Cc1nc(-c2noc(-c3ccccc3)n2)cn1CC(=O)Nc1ccc(Cl)cc1 | 885 |
| O=C(c1cc2occc2c(Nc2ccc(Cl)cc2)n1)N1CCN(C(=O)c2ccco2)CC1 | 861 |
| CCC(=O)N(C1CCOCC1)C1CCN(S(=O)(=O)c2ccccc2)CC1 | 764 |
| COc1ccccc1NC(=O)CN1C(=O)C(c2ccc(Cl)cc2)=NC1(C)C | 922 |
| CC(=O)N1CCCSc2ccc(S(=O)(=O)N(C)c3ccc(C)c(C)c3)cc21 | 1030 |
| CCOC(=O)c1csc(NC(=O)Cc2ccc(S(=O)(=O)CC)cc2)n1 | 681 |
| Fc1ccccc1-c1nnc2sc(-c3ccc4ccccc4n3)nn12 | 1080 |
| CCCCS(=O)(=O)c1cc2c(cc1NC(=O)c1ccc(C)cc1)n(C)c(=O)n2C | 955 |
| CCNC(=O)N1CC(c2nc(-c3ccc(F)cc3)no2)C2(CCOCC2)C1 (stereo not given) | 751 |
| O=C(NCc1ccccc1)c1ccc2c(c1)Sc1ncccc1C(=O)N2C1CC1 | 640 |
| COc1ccc(C(=O)N2CCn3c(C)nnc3C2)c(OC)c1 | 557 |

| SMILES | RP-LC retention time [s] |
| --- | --- |
| Cc1ccccc1-c1nnc(COc2ccc(NC(=O)Cc3cccs3)cc2)o1 | 976 |
| COc1ccc(N2CCN(C(=O)c3cc4c(-c5cccs5)nn(-c5ccccc5)c4n3C)CC2)cc1 | 1120 |
| Cc1ccc(NC(=O)N2CCCC(C)(C(=O)NCc3ccccc3)C2)cc1Cl (stereo not given) | 995 |
| CCCOc1nc2ccccc2nc1N1CCCC(C(=O)NC2CCCC2)C1 (stereo not given) | 1180 |
| COc1ccc(NC(=O)CN2CCC(C(=O)NCc3ccc(F)cc3F)CC2)c(OC)c1 | 578 |
| Cn1c(=O)c(SCC(=O)NCc2ccccc2F)nc2ccccc21 | 785 |
| CN(C)CC(=O)N1CC(F)(F)C[C@H]1c1nc(C2CC2)no1 | 584 |
| O=C1NC2(CCN(C(=O)c3cccc(F)c3)CC2)Nc2c(Cl)cccc21 | 756 |
| Fc1ccc(Cc2nc(-c3ccn4cnnc4c3)no2)cc1 | 764 |
| O=S(=O)(c1ccc(-c2noc(-c3ccccc3Br)n2)cc1)N1CCCC1 | 1220 |
| Cc1cccc(OCc2nc(C)c(C(=O)Nc3nc(-c4ccc5c(c4)OCCCO5)cs3)s2)c1 | 1230 |
| Cn1ncc2c3ccccc3n(CC(=O)N3CCN(c4ccc(F)cc4)CC3)c2c1=O | 875 |
| CCOc1ccc2nc(NC(=O)C3CCN(c4ccc(-n5cccn5)nn4)CC3)sc2c1 | 780 |
| CCOC(=O)N1CCC(NC(=O)Cc2csc(Nc3cccc(Cl)c3)n2)CC1 | 771 |
| COc1ccc(C(=O)N(Cc2cc(OC)c(OC)c(OC)c2)CC2CCCO2)cc1 (stereo not given) | 810 |
| COc1cccc(CNC(=O)Nc2c(-c3cccc(C)c3)nc3ccccn23)c1 | 673 |
| N#CC1=C(SCC(=O)NCc2ccccc2)NC(=O)CC1c1ccco1 (stereo not given) | 770 |
| CCc1nnc(-c2ccc(=O)n(CC(=O)Nc3ccc(C)cc3F)c2)o1 | 692 |
| Cn1ncc2c(N3CCSCC3)nc(C(=O)NCCc3cccnc3)nc21 | 575 |
| CC(C)n1c(C2CCN(C(=O)Cc3cccc(Cl)c3)C2)nc2ccncc21 (stereo not given) | 567 |
| O=C(CCNc1cnc2cnccn12)NCCC1=CCCCC1 | 626 |
| Cn1nnnc1SCC(=O)N1CCC(C(=O)NCC(F)(F)F)CC1 | 600 |
| CCOC(=O)N1CCc2c(sc(NC(=O)C3CC3)c2-c2nc3ccccc3s2)C1 | 905 |

| SMILES | RP-LC retention time [s] |
| --- | --- |
| CCCCCCCCc1ccc(CCC(N)(CO)CO)cc1 | 966 |
| CC(C)S(=O)(=O)N1CCC(F)(c2nc(-c3ccccc3)no2)CC1 | 1020 |
| COCCNc1c(-c2cccc(F)c2)nc2sc(C(=O)N3CCCC3)c(C)n12 | 783 |
| CCOC(=O)c1nc(N(C)c2ccccc2CC)c2ccccc2n1 | 1010 |
| CCc1nn2c(CNC(=O)C3CCC3)c(-c3ccccc3)nc2s1 | 804 |
| CCNS(=O)(=O)c1cccnc1Nc1ccccc1F | 948 |
| Fc1ccc(Cc2nc(-c3cccc(-c4ccn[nH]4)c3)no2)cc1 | 925 |
| CCOc1cc(-c2ccc(Cl)cc2)nc2ccc(NC(C)=O)cc12 | 686 |
| CCOC(=O)c1noc2nc(C)nc(NCc3ccc(Cl)cc3)c12 | 1160 |
| COC(=O)c1ccc(C(=O)NCCN2CCN(c3ccc(F)cc3)CC2)cc1 | 576 |
| COC(=O)c1sc2ccccc2c1NC(=O)c1cc(C)n(C)n1 | 886 |
| CN(CC(=O)N1CCN(c2ccccc2F)CC1)S(=O)(=O)c1c[nH]c(C(=O)N2CCCCC2)c1 | 836 |
| Cn1c(=O)c(N2CCC(NC(=O)Nc3ccc(F)cc3)CC2)nc2ccccc21 | 849 |
| COCCC1CCN(C(=O)COc2ccccc2)CC1 | 800 |
| CCOC(=O)c1c(C)c(CCC(=O)N2CCCCCC2)n(CC)c1C | 985 |
| Cc1ccc(-c2coc(-c3ccc(NC(=O)c4cccs4)cc3)n2)c(C)c1 | 1270 |
| O=C(Nc1ccc(OCc2nnc(-c3ccccc3)o2)cc1)c1ccccn1 | 905 |
| Cc1ccc(C)c(N2CCN(c3ccc(-c4nc(-c5cccc(F)c5)no4)cn3)CC2)c1 | 602 |
| Cc1cc2c(cc1NC(=O)c1cccs1)n(C)c(=O)n2C | 668 |
| CCCN1C(=O)COc2ccc(-c3noc(C4CC(=O)N(c5ccc(C)c(C)c5)C4)n3)cc21 (stereo not given) | 1060 |
| CCn1c(=O)c(NCc2ccc(F)cc2Cl)nc2ccncc21 | 661 |

Reference: the METLIN SMRT retention time set (Domingo-Almenara et al. 2019)
